Test results from patent publication US12446582B2 (priority 2018, dated 2025).
“Also recorded” adds a separate entry of the source. Where two headings read alike, the source gives them in different places.

Tested on: Fusarium pseudograminearum
[1] = average of 5 trials, compared to untreated T1
[2] = average of 5 trials, compared to untreated T1, listed as T2
[3] = average of 5 trials, untreated T1 = 100.00

Description: 5 wheat trial locations were selected across the main wheat growing areas of Australia. All five sites have a history of crown rot and high stubble load coming out of susceptible rotation crop. Soil samples were taken to confirm the pathogen pressure. The seeds were treated with a Rotostat Seed Treater with 800 ml slurry volume per 100 kg of seeds. Planting for the trials took place between 2 June and 14 June using a 6 to 8 row planter. The number of plants was counted 35-65 days after sowing on 2×5 m row. The number of wheat plants with white heads per plot was assessed at full ripe and recorded as % compared to the untreated plants which were taken as reference. Yield grain data was taken at the end of the season.

## O=C(NC1CCC1c1ccc(Cl)cc1Cl)c1cccnc1C(F)(F)F (stereo not drawn) [Compound 1]
[1]
  Final emergence counts % increase compared to T1: 7.52%
  Plot yields % increase compared to T1: 26%
  White heads % reduction compared to T1: 34%
[2]
  Plot yields % increase compared to T1: 26.32%
  White heads % reduction compared to T1: 34.20%
Average of 5 trials, % compared to untreated T1 = 100.00
  White heads Average: 66.80%
[3]
  Final emergence counts Average: 107.52
  Plot yields Average: 126.32
Trial AR0T020, Merredin, WA, variety Cobra, seed treatment, % compared to untreated T1 = 100.00, at full ripe
  White heads AR0T020: 32.86%
Trial AR0T020, Merredin, WA, variety Cobra, seed treatment, full plot harvest, untreated T1 = 100.00
  Plot yields AR0T020: 127.83
Trial AR0T020, Merredin, WA, variety Cobra, seed treatment, untreated T1 = 100.00
  Final emergence counts AR0T020: 101.87
Trial AR0T021, Tammin, WA, variety Cobra, seed treatment, % compared to untreated T1 = 100.00, at full ripe
  White heads AR0T021: 28.45%
Trial AR0T021, Tammin, WA, variety Cobra, seed treatment, full plot harvest, untreated T1 = 100.00
  Plot yields AR0T021: 107.62
Trial AR0T021, Tammin, WA, variety Cobra, seed treatment, untreated T1 = 100.00
  Final emergence counts AR0T021: 118.36
Trial DL0T013, Bunnaloo, NSW, variety Aurora (Durum), seed treatment, % compared to untreated T1 = 100.00, at full ripe
  White heads DL0T013: 92.59%
Trial DL0T013, Bunnaloo, NSW, variety Aurora (Durum), seed treatment, full plot harvest, untreated T1 = 100.00
  Plot yields DL0T013: 116.90
Trial DL0T013, Bunnaloo, NSW, variety Aurora (Durum), seed treatment, untreated T1 = 100.00
  Final emergence counts DL0T013: 100.80
Trial GS0T007, Redhill, SA, variety Saintly (Durum), seed treatment, % compared to untreated T1 = 100.00, at full ripe
  White heads GS0T007: 74.52%
Trial GS0T007, Redhill, SA, variety Saintly (Durum), seed treatment, full plot harvest, untreated T1 = 100.00
  Plot yields GS0T007: 162.86
Trial GS0T007, Redhill, SA, variety Saintly (Durum), seed treatment, untreated T1 = 100.00
  Final emergence counts GS0T007: 113.09
Trial N10T669, Bellata, NSW, variety Lillaroi (Durum), seed treatment, % compared to untreated T1 = 100.00, at full ripe
  White heads N10T669: 105.57%
Trial N10T669, Bellata, NSW, variety Lillaroi (Durum), seed treatment, full plot harvest, untreated T1 = 100.00
  Plot yields N10T669: 116.41
Trial N10T669, Bellata, NSW, variety Lillaroi (Durum), seed treatment, untreated T1 = 100.00
  Final emergence counts N10T669: 103.48
Wheat seed treatment, compared to commercial treatments T3-T5
  yield increase compared to other commercial treatments (in words): more than double; also recorded: more than twice as much
